Laboratory results published in paper PMC9038752, “Molecular mechanisms of bifunctional vitamin D receptor agonist-histone deacetylase inhibitor hybrid molecules in triple-negative breast cancer” (Scientific Reports, 2022).
pIC50: −log10 of the molar value.

Experiments:
purified HDAC6 = target: T1, purified HDAC6 (Homo sapiens, UniProt Q9UBN7); assay: Fluorogenic HDAC inhibition assay, HDAC6; type: biochemical; details: purified HDAC6, fluorometric substrate
T1 construct: purchased Cayman Chemical
T1 sequence (Q9UBN7 1-1215): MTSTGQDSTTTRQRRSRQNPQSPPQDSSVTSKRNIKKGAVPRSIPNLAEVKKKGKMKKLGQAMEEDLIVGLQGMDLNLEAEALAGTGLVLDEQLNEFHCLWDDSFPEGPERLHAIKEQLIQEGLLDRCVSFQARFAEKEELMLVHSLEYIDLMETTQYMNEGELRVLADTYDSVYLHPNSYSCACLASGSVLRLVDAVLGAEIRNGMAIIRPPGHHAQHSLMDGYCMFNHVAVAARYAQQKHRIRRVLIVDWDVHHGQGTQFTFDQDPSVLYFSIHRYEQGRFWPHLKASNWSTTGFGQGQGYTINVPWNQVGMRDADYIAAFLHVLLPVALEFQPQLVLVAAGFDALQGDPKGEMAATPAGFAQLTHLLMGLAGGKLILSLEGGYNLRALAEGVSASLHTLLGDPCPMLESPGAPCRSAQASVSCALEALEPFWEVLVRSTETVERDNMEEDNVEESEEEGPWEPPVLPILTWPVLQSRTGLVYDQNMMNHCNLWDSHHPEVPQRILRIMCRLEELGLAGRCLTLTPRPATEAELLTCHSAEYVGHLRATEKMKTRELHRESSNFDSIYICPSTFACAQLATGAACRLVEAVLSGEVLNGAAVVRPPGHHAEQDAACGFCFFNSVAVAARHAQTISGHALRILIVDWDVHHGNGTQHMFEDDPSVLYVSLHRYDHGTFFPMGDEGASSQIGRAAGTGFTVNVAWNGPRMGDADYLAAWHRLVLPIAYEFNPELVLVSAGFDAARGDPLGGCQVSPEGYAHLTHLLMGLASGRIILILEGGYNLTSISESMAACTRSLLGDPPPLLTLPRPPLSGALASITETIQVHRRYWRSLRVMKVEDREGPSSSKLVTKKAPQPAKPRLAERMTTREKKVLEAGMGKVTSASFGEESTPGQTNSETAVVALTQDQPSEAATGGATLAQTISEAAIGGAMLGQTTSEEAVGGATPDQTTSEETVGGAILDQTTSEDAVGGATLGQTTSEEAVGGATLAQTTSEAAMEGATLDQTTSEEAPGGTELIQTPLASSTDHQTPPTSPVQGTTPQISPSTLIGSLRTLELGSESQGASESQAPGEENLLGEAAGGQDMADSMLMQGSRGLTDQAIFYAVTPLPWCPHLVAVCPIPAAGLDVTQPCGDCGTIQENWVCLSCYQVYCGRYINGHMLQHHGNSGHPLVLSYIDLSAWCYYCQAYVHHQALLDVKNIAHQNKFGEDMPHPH
Procedure: (§1) The hybrids were assessed to determine their HDACi and VDR agonist activity as well as their antiproliferative properties relative to DK-406. HDACi activity was assessed in vitro using an acetylated lysine substrate that releases a fluorescent reporter upon HDACi deacetylation and subsequent trypsin digestion. Increasing sidechain length of pyrimidine hybrids enhanced the potency of HDAC6 inhibition, with several compounds inhibiting HDAC6 with a sub-micromolar IC50, similar to that of DK-406 (Fig. 4a). […] Next, we analyzed the effects of compounds on levels of H3K9 and H3K27 acetylation in 4TO7 cells, which are controlled by class I HDACs[29],[30]. […] We also tested the capacity of analogues to induce tubulin acetylation, controlled by class II enzyme HDAC6[32], in 4TO7 cells. Based on their relative efficacy in cytotoxicity assays (see below, Fig. 5c,d), we used 10^–5 M DK-406 and 10^–6 M AM-193 for these studies.
(§2) Figure 4 (a) Results of in vitro assays for inhibition of purified HDAC2 and HDAC6 by DK-406 and heterocyclic hybrids as measured by inhibition of deacetylation of a fluorometric substrate (see Methods for details). (b–d) Left: Western blotting analysis of histone 3 lysine 9 (H3K9; b), H3K27 (c), or acetylated tubulin (d), levels in 4TO7 cells treated with ligands for 6 h. Representative western-blots are shown from at least 3 biological replicates. Right: Graphs representing the average of the replicates, bars are mean ± SD. Each condition was compared to control. *: p ≤ 0.05, **: p ≤ 0.01, ***: p ≤ 0.001, ****: p ≤ 0.0001, ns: not significant. TEXT PRINTED IN THE PICTURE: (a) DK-406: HDAC6 IC50 (μM): 0.6; HDAC2 IC50 (μM): 0.5 | (a) AM-155: HDAC6 IC50 (μM): 2.8; HDAC2 IC50 (μM): 1.7 | (a) AM-171: HDAC6 IC50 (μM): 0.5; HDAC2 IC50 (μM): 9.6 | (a) AM-172: HDAC6 IC50 (μM): 0.3; HDAC2 IC50 (μM): 7.7 | (a) AM-191: HDAC6 IC50 (μM): 1.9; HDAC2 IC50 (μM): 8.1 | (a) AM-192: HDAC6 IC50 (μM): 0.5; HDAC2 IC50 (μM): 6.5 | (a) AM-193: HDAC6 IC50 (μM): 0.3; HDAC2 IC50 (μM): 7.2
(§3) Purified HDAC2 and HDAC6 were purchased from Cayman Chemical. Boc-Lys(Ac)-7-amino-4-methylcoumarin (BocLys(Ac)-AMC) was used as substrate for the HDAC assays. Substrate solution was prepared as follow: Boc(Lys-Ac)-AMC was dissolved in DMSO and diluted with HDAC buffer (15 mM tris–HCl [pH 8.1], 250 μM EDTA, 250 mM NaCl, 10% glycerol) to give 1 mM solutions containing 1.7% DMSO. Trypsin was used to stop the reaction, releasing free AMC. The trypsin solution was prepared as follow: trypsin was dissolved in HDAC buffer to give a concentration of 10 mg/mL. Release of AMC was monitored by measuring the fluorescence at 460 nm (lex = 390 nm) with a microplate reader (SpectraMax Gemini from Molecular Devices) at 37 °C. The AMC signals were recorded against a blank with buffer, substrate and trypsin but without the enzyme. All experiments were carried out at least in triplicate.
(§4) For HDAC inhibition assays, inhibitor diluted in 50 μL of HDAC buffer was mixed with 10 μL of diluted enzyme solution in HDAC buffer at room temperature. The HDAC reaction was started by adding 40 μL of substrate solution in HDAC buffer followed by 60 min of incubation with stirring at 37 °C. The reaction was stopped by adding 100 μL of trypsin solution. After a 30 min incubation with stirring at 37 °C, the release of AMC was monitored by measuring the fluorescence.

purified HDAC2 = target: T2, purified HDAC2 (Homo sapiens, UniProt Q92769); assay: Fluorogenic HDAC inhibition assay, HDAC2; type: biochemical; details: purified HDAC2, fluorometric substrate
T2 construct: purchased Cayman Chemical
Procedure: as §1, §2, §3, §4

T2 sequence (Q92769 whole entry): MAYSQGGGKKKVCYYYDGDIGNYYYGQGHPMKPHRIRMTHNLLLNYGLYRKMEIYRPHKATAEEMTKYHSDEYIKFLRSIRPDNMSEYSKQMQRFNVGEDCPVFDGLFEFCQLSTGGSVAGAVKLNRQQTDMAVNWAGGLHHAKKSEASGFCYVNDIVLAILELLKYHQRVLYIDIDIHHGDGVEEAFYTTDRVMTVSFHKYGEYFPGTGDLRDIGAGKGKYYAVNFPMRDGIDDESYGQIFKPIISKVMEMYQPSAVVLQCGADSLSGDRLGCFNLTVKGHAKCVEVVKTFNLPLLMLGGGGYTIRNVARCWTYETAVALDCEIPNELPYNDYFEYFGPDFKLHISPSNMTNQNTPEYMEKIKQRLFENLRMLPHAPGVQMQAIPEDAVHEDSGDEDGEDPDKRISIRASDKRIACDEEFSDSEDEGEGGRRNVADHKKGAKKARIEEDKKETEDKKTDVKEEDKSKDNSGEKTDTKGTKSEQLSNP

SMILES	pIC50 (purified HDAC6)	pIC50 (purified HDAC2)
CCC(CC)(c1ccc(OCC(O)C(C)(C)C)c(C)c1)c1ccc(OCC(=O)NO)cn1 (centres unmarked) [AM-155]	5.55	5.77
CCC(CC)(c1ccc(OCC(O)C(C)(C)C)c(C)c1)c1ccc(OCCCC(=O)NO)cn1 (centres unmarked) [AM-171]	6.30	5.02
CCC(CC)(c1ccc(OCCCCCC(=O)NO)cc1)c1ccc(OCC(O)C(C)(C)C)c(C)n1 (centres unmarked) [AM-193]	6.52	5.14
CCC(CC)(c1ccc(C(=O)NCCCCCC(=O)NO)cc1)c1ccc(OCC(O)C(C)(C)C)c(C)c1 (centres unmarked) [DK-406]	6.22	6.30
